The text below walks through data of ChEMBL document CHEMBL1146976, “Radanamycin, a macrocyclic chimera of radicicol and geldanamycin” (Bioorg Med Chem Lett, 2006).

One test concerns MCF7. In words: Antiproliferative activity against human MCF7 cells. The test is classed as functional, cell-based.
Test [1] addresses Heat shock protein HSP90 (Homo sapiens) (UniProt P07900+P08238). The test is described as follows: Inhibition of Hsp90 assessed by degradation of client proteins Her2 and Akt. In kind it is protein assay.

Active and inactive are the calls of the source. The rule behind the calls is not given here.

As usually defined, the IC50 is the concentration that gives 50% inhibition. Read a low IC50 as greater potency in that assay.

For the compound `COc1c(O)cc2c(O)c1CC(C)OC(=O)c1c(O)cc(O)c(Cl)c1CCC(=O)N2` (configuration not stated) [RADANAMYCIN], the half-maximal inhibitory concentration (IC50) in the test with MCF7 is 1200 nM. In test [1], the outcome was Active.
